Reference: article PMC11200585, “Prospects for Prostate Cancer Chemotherapy: Cytotoxic Evaluation and Mechanistic Insights of Quinolinequinones with ADME/PK Profile” (Biomedicines, 2024)

How the values were obtained:
Assay type in all cases: cell-based, human
CCRF-CEM = test: NCI-60 one-dose screen (leukemia); conditions: 10 µM single dose
HL-60(TB) [1] = test: NCI-60 one-dose screen (leukemia); conditions: 10 µM single dose, 48 h
K-562 [2] = test: NCI-60 one-dose screen (leukemia); conditions: 10 µM single dose, 48 h
MOLT-4 = test: NCI-60 one-dose screen (leukemia); conditions: 10 µM single dose, 48 h
RPMI-8226 = test: NCI-60 one-dose screen (leukemia); conditions: 10 µM single dose, 48 h
SR = test: NCI-60 one-dose screen (leukemia); conditions: 10 µM single dose, 48 h
COLO 205 [3] = test: NCI-60 one-dose screen (colon cancer); conditions: 10 µM single dose, 48 h
KM12 [4] = test: NCI-60 one-dose screen (colon cancer); conditions: 10 µM single dose, 48 h
SW-620 [5] = test: NCI-60 one-dose screen (colon cancer); conditions: 10 µM single dose, 48 h
786-0 = test: NCI-60 one-dose screen (renal cancer); conditions: 10 µM single dose
A498 = test: NCI-60 one-dose screen (renal cancer); conditions: 10 µM single dose, 48 h
ACHN = test: NCI-60 one-dose screen (renal cancer); conditions: 10 µM single dose, 48 h
SN12C = test: NCI-60 one-dose screen (renal cancer); conditions: 10 µM single dose, 48 h
TK-10 [6] = test: NCI-60 one-dose screen (renal cancer); conditions: 10 µM single dose, 48 h
UO-31 [7] = test: NCI-60 one-dose screen (renal cancer); conditions: 10 µM single dose, 48 h
HL-60(TB) [8] = test: NCI-60 five-dose assay (leukemia); conditions: 48 h, SRB
K-562 [9] = test: NCI-60 five-dose assay (leukemia); conditions: SRB
A549/ATCC = test: NCI-60 five-dose assay (non-small cell lung cancer); conditions: 48 h, SRB
COLO 205 [10] = test: NCI-60 five-dose assay (colon cancer); conditions: 48 h, SRB
HCT-116 = test: NCI-60 five-dose assay (colon cancer); conditions: 48 h, SRB
HCT-15 = test: NCI-60 five-dose assay (colon cancer); conditions: 48 h, SRB
HT29 = test: NCI-60 five-dose assay (colon cancer); conditions: SRB
KM12 [11] = test: NCI-60 five-dose assay (colon cancer); conditions: 48 h, SRB
SW-620 [12] = test: NCI-60 five-dose assay (colon cancer); conditions: 48 h, SRB
SF-295 = test: NCI-60 five-dose assay (CNS cancer); conditions: 48 h, SRB
SF-539 = test: NCI-60 five-dose assay (CNS cancer); conditions: 48 h, SRB
U251 = test: NCI-60 five-dose assay (CNS cancer); conditions: SRB
M14 = test: NCI-60 five-dose assay (melanoma); conditions: 48 h, SRB
MDA-MB-435 = test: NCI-60 five-dose assay (melanoma); conditions: 48 h, SRB
SK-MEL-28 = test: NCI-60 five-dose assay (melanoma); conditions: 48 h, SRB
UACC-257 = test: NCI-60 five-dose assay (melanoma); conditions: 48 h, SRB
IGROV1 = test: NCI-60 five-dose assay (ovarian cancer); conditions: SRB
OVCAR-4 = test: NCI-60 five-dose assay (ovarian cancer); conditions: 48 h, SRB
OVCAR-8 = test: NCI-60 five-dose assay (ovarian cancer); conditions: 48 h, SRB
TK-10 [13] = test: NCI-60 five-dose assay (renal cancer); conditions: 48 h, SRB
UO-31 [14] = test: NCI-60 five-dose assay (renal cancer); conditions: 48 h, SRB
DU-145 = test: NCI-60 five-dose assay (prostate cancer); conditions: 48 h, SRB
[15] = Homo sapiens, read-out: LC50 (the source's name)

## CCOc1ccc(NC2=C(Cl)C(=O)c3nc(C)ccc3C2=O)cc1 [AQQ3]
CCRF-CEM; 48 h
  GP (growth percentage): 0.63%
CCRF-CEM; Homo sapiens
  inhibition at 10 µM: 99.4%
HL-60(TB) [1]
  GP (growth percentage): −46.39%
K-562 [2]
  GP (growth percentage): −4.17%
MOLT-4
  GP (growth percentage): −46.73%
RPMI-8226
  GP (growth percentage): −19.35%
SR
  GP (growth percentage): −27.42%
COLO 205 [3]
  GP (growth percentage): 98.22%
KM12 [4]
  GP (growth percentage): 57.40%
SW-620 [5]
  GP (growth percentage): −55.33%
786-0; 48 h
  GP (growth percentage): 8.39%
786-0; Homo sapiens
  inhibition at 10 µM: 91.6%
A498
  GP (growth percentage): 100.96%
ACHN
  GP (growth percentage): −98.42%
SN12C
  GP (growth percentage): −57.33%
TK-10 [6]
  GP (growth percentage): 121.08%
UO-31 [7]
  GP (growth percentage): −65.05%
HL-60(TB) [8]
  TGI: 4.18 µM
HL-60(TB) [8]; Homo sapiens
  GI50: 1.47 µM
HL-60(TB) [8]; [15]
  CC50: > 100 µM
K-562 [9]; 48 h
  TGI: >100 µM
K-562 [9]; Homo sapiens, K562, 48 h
  GI50: 1.17 µM
  LC50: > 100 µM
A549/ATCC
  TGI: 4.64 µM
A549/ATCC; Homo sapiens
  GI50: 2.09 µM
A549/ATCC; [15]
  CC50: 17.5 µM
COLO 205 [10]
  TGI: 3.64 µM
COLO 205 [10]; Homo sapiens
  GI50: 1.86 µM
COLO 205 [10]; [15]
  CC50: 7.12 µM
HCT-116
  TGI: 2.79 µM
HCT-116; Homo sapiens
  GI50: 1.32 µM
  LC50: 5.92 µM
HCT-15
  TGI: 2.94 µM
HCT-15; Homo sapiens
  GI50: 1.3 µM
HCT-15; [15]
  CC50: 6.66 µM
HT29; 48 h
  TGI: 7.08 µM
HT29; Homo sapiens, HT-29, 48 h
  GI50: 2.87 µM
  LC50 (concentration killing 50% of cells): 62.5 µM
KM12 [11]
  TGI: 3.07 µM
KM12 [11]; Homo sapiens
  GI50: 1.44 µM
KM12 [11]; [15]
  CC50: 6.51 µM
SW-620 [12]
  TGI: 3.51 µM
SW-620 [12]; Homo sapiens
  GI50: 1.83 µM
  LC50: 6.73 µM
SF-295
  TGI: 3.43 µM
SF-295; Homo sapiens
  GI50: 1.86 µM
  LC50 (50% lethal concentration): 6.3 µM
SF-539
  TGI: 3.13 µM
SF-539; Homo sapiens
  GI50: 1.68 µM
  LC50: 5.84 µM
U251; 48 h
  TGI: 3.54 µM
U251; Homo sapiens, U-251, 48 h
  GI50: 1.8 µM
  LC50 (concentration killing 50% of cells): 6.94 µM
M14
  TGI: 3.23 µM
M14; Homo sapiens
  GI50: 1.68 µM
  LC50: 6.21 µM
MDA-MB-435
  TGI: 1.53 µM
MDA-MB-435; Homo sapiens
  GI50: 0.442 µM
MDA-MB-435; [15]
  CC50: 3.99 µM
SK-MEL-28
  TGI: 3.14 µM
SK-MEL-28; Homo sapiens
  GI50: 1.73 µM
  LC50: 5.7 µM
UACC-257
  TGI: 2.78 µM
UACC-257; Homo sapiens
  GI50: 1.39 µM
  LC50 (NCI-60 lethal concentration, 50% cell kill): 5.58 µM
IGROV1; 48 h
  TGI: 2.76 µM
IGROV1; Homo sapiens, IGROV-1, 48 h
  GI50: 1.36 µM
  LC50: 5.61 µM
OVCAR-4
  TGI: 2.37 µM
OVCAR-4; Homo sapiens
  GI50: 1.13 µM
  LC50 (concentration killing 50% of cells): 4.97 µM
OVCAR-8
  TGI: 3.01 µM
OVCAR-8; Homo sapiens
  GI50: 1.57 µM
OVCAR-8; [15]
  CC50: 5.77 µM
TK-10 [13]
  TGI: 3.77 µM
TK-10 [13]; Homo sapiens
  GI50: 2.3 µM
  LC50 (concentration killing 50% of starting cells): 6.18 µM
UO-31 [14]
  TGI: 2.75 µM
UO-31 [14]; Homo sapiens
  GI50: 1.43 µM
  LC50 (lethal concentration 50%): 5.28 µM
DU-145
  TGI: 3.13 µM
DU-145; Homo sapiens
  GI50: 1.72 µM
DU-145; [15]
  CC50: 5.68 µM
